Assay results reported in patent US20220142958A1, “MEDICINAL COMPOSITION HAVING EXCELLENT STABILITY” (EA Pharma Co., Ltd., priority 2019, published 2022).

Columns and labels:
[1] = Example 1B: residual ratio of Compound A1 at 2 concentrations stored at 5° C.; format: physicochemical
Method: According to Table 3 below, Compound A1 was dissolved in each of the buffer solutions at 2 concentrations. Each of these solutions was dispensed into a glass vial and stored at 5° C. After the storage, a residual ratio of Compound A1 was calculated according to a test method described below.
Test method: In the solution after the storage, the residual ratio was analyzed according to a normal method using a liquid chromatography apparatus Prominence (manufactured by Shimadzu Corporation) and an ultraviolet absorptiometer (measurement wavelength: 254 nm, Prominence (manufactured by Shimadzu Corporation)). At this time, SUMIPAX ODS (3 mm×150 mm, 5 μm, manufactured by SCAS) was used as a column.
The residual ratio (%) of Compound A1 during each storage period at 5° C. was calculated as follows.
Residual ratio (%) of Compound A1 during each storage period=peak area of Compound A1 in sample solution/sum of peak area of sample solution×100

[2] = Example 3: storage stability of formulations at 5° C., 15° C. and 25° C.; format: physicochemical
Method: Compound A1 weighed so as to have the composition shown in Table 7 below and each of the buffer solutions were dissolved in water for injection to obtain a uniform solution. These solutions were filled in glass ampoules and sealed. Each pH in Example 3 was measured during each storage period using a pH meter HM-30R (manufactured by DKK-TOA CORPORATION).
The residual ratio of Compound A1 and the production of each of the decomposition products at 5° C., 15° C., and 25° C. were evaluated according to a test method described below.
Test method: In the solution after the storage, the residual ratio was analyzed according to a normal method using a liquid chromatography apparatus (ACQUITY UPLC H-Class; measurement wavelength: 210 nm). At this time, XSELECT CSH C18 (2.1 mm×100 mm, 3.5 μm, manufactured by Waters Corporation) was used as a column.
Calculation for obtaining the residual ratio (%) of Compound A1 and each of the decomposition products (%) during each storage period is as follows.
Residual ratio (%) of Compound A1=peak area of Compound A1 in sample solution/sum of peak area of sample solution×100
Each of decomposition products (%)=peak area of each of decomposition products in sample solution/sum of peak area of sample solution×100

serum iPTH concentration = assay: Serum iPTH concentration in bilaterally nephrectomized rats after single intravenous administration; format: in vivo, rat
Excerpt: (§1) After quarantine and acclimatization periods of 6 days, fifty-one rats (Crl: CD (SD), male) aged 7 weeks were fed a 100% sucrose diet ad libitum from four days before the surgery. On the day of the surgery, skin incisions were made on the back at the sites of the right and left kidneys under isoflurane anesthesia and the renal capsules were removed to ligate the renal arteries and veins and the ureters using threads before removing the right and left kidneys. A penicillin solution was given upon suturing, and 5 mL of physiological saline was intraperitoneally administered before returning the rats into the breeding cages.
On the day of administering the test substance, for example, a day after the bilaterally nephrectomy, approximately 100 μL of blood was collected from the tail vein without anesthesia using a capillary tube, which was centrifuged in a high speed refrigerated microcentrifuge (10,000 rpm, 5 min, 4° C.) to separate the serum. Thereafter, the serum Ca concentration was measured with a dri-chemanalyzer (model number: FUJI DRI-CHEM 7000, manufacturer: FUJI FILM Medical Co., Ltd.) to select individuals with a serum Ca concentration of 8.0 mg/dL or more and less than 14.0 mg/dL.
(§2) On a day after the bilaterally nephrectomy, the given doses were calculated based on the weight of the selected animals on that day. Group 1 was given a medium (physiological saline), Groups 2, 3 and 4 were given the Compound A1 solution (0.3, 3 and 30 mg/mL, respectively), and Groups 5, 6, 7 and 8 (5 rats per group) were given the comparative compound (0.3, 1, 3 and 10 mg/mL, respectively), each given a single dose of 1 ml/kg from the tail vein. Prior to the administration (0 hours), and 24 and 48 hours after the administration, approximately 300 μL of blood was collected without anesthesia from the tail vein using capillary tubes for obtaining the serum. The blood for obtaining the serum was left to stand at room temperature, and centrifuged in a high speed refrigerated microcentrifuge (10,000 rpm, 5 min, 4° C.) within a period of 30 minutes to 2 hours after the blood collection to collect the serum.
Thereafter, the serum Ca was analyzed with COBAS analyzer (Model number: COBAS INTEGRA 400 plus, manufacturer: Roche Diagnostics K.K.), and the remaining serum was stored in an ultra-low freezer (temperature set to −80±15° C.) until the day of iPTH measurement. On the day of iPTH measurement, the serum was melted at room temperature for measurement.
A 30 mg/ml Compound A1 solution ([…] of Compound A1 dissolved in 10 ml of physiological saline) was diluted with physiological saline to prepare 0.3 mg/ml and […] Compound A1 solutions.
149 mg of etelcalcetide (Ac-c(C) arrrar-NH2) TFA salt (WO 2011/014707 A) was prepared to have pH of 6 to 8 with 7 ml of physiological saline and a 0.5N aqueous NaOH solution, and physiological saline was further added thereto to make 10 ml. The prepared 10 mg/ml comparative compound solution was diluted with physiological saline to obtain 0.3 mg/ml and 1 mg/ml comparative compound solutions.

[3] = test system: bilaterally nephrectomized rats; assay: Survival of bilaterally nephrectomized rats after single doses; format: in vivo, rat; details: 48 hours after the administration, all administered groups (0.3, 3, 30 mg/kg)
Excerpt: as §1, §2

Structure (SMILES): Cc1c(Cl)cc(S(=O)(=O)[O-])cc1NC(=O)NC[C@H](N)C(=O)O.[Na+] [Compound A1, sodium 3-{[(2S)-2-amino-2-carboxyethyl]carbamoylamino}-5-chloro-4-methylbenzenesulfonate]
- Residual ratio (%) ([1]; 0.1 mg/mL, pH 1.1, 5° C., 23 hours): 100%
- Residual ratio (%) ([1]; 0.1 mg/mL, pH 1.1, 5° C., 141 hours): 100%
- Residual ratio (%) ([1]; 0.1 mg/mL, pH 1.1, 5° C., 570 hours): 100%
- Residual ratio (%) ([1]; 0.1 mg/mL, pH 7.0, 5° C., 23 hours): 100%
- Residual ratio (%) ([1]; 0.1 mg/mL, pH 7.0, 5° C., 141 hours): 100%
- Residual ratio (%) ([1]; 0.1 mg/mL, pH 7.0, 5° C., 570 hours): 100%
- Residual ratio (%) ([1]; 10 mg/mL, pH 1.1, 5° C., 23 hours): 100%
- Residual ratio (%) ([1]; 10 mg/mL, pH 1.1, 5° C., 141 hours): 100%
- Residual ratio (%) ([1]; 10 mg/mL, pH 1.1, 5° C., 570 hours): 100%
- Residual ratio (%) ([1]; 10 mg/mL, pH 7.0, 5° C., 23 hours): 100%
- Residual ratio (%) ([1]; 10 mg/mL, pH 7.0, 5° C., 141 hours): 100%
- Residual ratio (%) ([1]; 10 mg/mL, pH 7.0, 5° C., 570 hours): 100%
- stability of the formulation ([1]; pH of 1.1 and pH of 7.0, 5° C., regardless of the concentration): stable
- storage stability ([2]; formulations in the pH range of 6.4 to 6.9, 5° C., for 30 months): excellent storage stability
- storage stability ([2]; formulations in the pH range of 6.4 to 6.9, 15° C., for 12 months): excellent storage stability
- storage stability ([2]; formulations in the pH range of 6.4 to 6.9, 25° C. (60% RH), for 6 months): excellent storage stability
- mean serum iPTH concentration (serum iPTH concentration; 0.3 mg/kg single i.v., 24 hours after the administration): 140 pg/mL
- mean serum iPTH concentration (serum iPTH concentration; 0.3 mg/kg single i.v., 48 hours after the administration): 338 pg/mL
- mean serum iPTH concentration (serum iPTH concentration; 3 mg/kg single i.v., 24 hours after the administration): 138 pg/mL
- mean serum iPTH concentration (serum iPTH concentration; 3 mg/kg single i.v., 48 hours after the administration): 280 pg/mL
- mean serum iPTH concentration (serum iPTH concentration; 30 mg/kg single i.v., 24 hours after the administration): 118 pg/mL
- mean serum iPTH concentration (serum iPTH concentration; 30 mg/kg single i.v., 48 hours after the administration): 245 pg/mL
- EC50 (serum iPTH concentration; Rattus norvegicus, iv, plasma concentration, rats, read-out: 50% effective concentration, EC50 value, for decreasing the serum iPTH concentration): 0.075 µg/mL
- lower limit value of the serum iPTH concentration (simulated) (serum iPTH concentration; logistic curve fitting, 48 hours after the administration vs given dose): 203.0 pg/mL
- decrease of serum iPTH and Ca concentrations (serum iPTH concentration; renal failure rat models, during 48 hours after the administration, relation to dose): sufficiently decreased during the 48 hours after the administration but the decreases were gradual with respect to the increase in the dose
- number of rats surviving (of five per group) [3]: five
